Assay results from article PMC9695682, “Flavonoids from Piper Species as Promising Antiprotozoal Agents against Giardia intestinalis: Structure-Activity Relationship and Drug-Likeness Studies” (Pharmaceuticals, 2022).
Read-outs that look alike come from different tables or passages of the source.

Experiments:
Type in all cases: cell-based
[1] = system: Giardia intestinalis trophozoites; experiment: In vitro assay on trophozoite form of Giardia intestinalis (resazurin, 48 h); details: for IC50: Giardia duodenalis, trophozoites, 48 h, read-out: G. intestinalis IC50
Method: Trophozoites of Giardia (strain ATCC® 203333) were grown in modified TYI-S-33 medium at pH 7.0, supplemented with 10% heat-inactivated fetal calf serum and 0.5 g bovine bile (Sigma-Aldrich, St Louis, MO, USA), in 20 mL screw-cap culture vials. The assay was carried out according to a previously described method. Detachment of trophozoites for preparation of inoculant was achieved by chilling the cultures on ice for 20 min. Trophozoites (5 × 10^4 parasites/well) were cultured in 96-well plastic plates (Sarstedt, Nümbrecht, Germany). Compounds were dissolved in DMSO. […] To evaluate cell viability, the fluorescence intensity (535 nm-excitation wavelength- and 590 nm-emission wavelength) was determined with a fluorimeter Infinite 200 (Tecan i-Control, Tecan Ibérica Instrumentation S.L., Barcelona, Spain) to calculate the growth inhibition rate (%). All tests were carried out in triplicate. Metronidazole was used as a reference drug. […] All values were expressed as means ± standard error of the mean (S.E.M.). Statistically significant differences between treated and control samples were tested by one-way analysis of variance (ANOVA).

[2] = Cytotoxicity assay on murine macrophages (resazurin, 48 h); details: mouse, J774 cell line, 48 h
Method: (§1) A., Madrid, Spain) at 37 °C and 5% CO2 air atmosphere. The assay was carried out according to a previously described method. […] Growth controls and signal-to-noise were also included. Afterward, a volume of 20 μL of 2.5 mM resazurin solution in PBS was added, and plates were placed again in the incubator for another 3 h to evaluate cell viability. The reduction of resazurin was determined by fluorometry as in the promastigote assay. Each concentration was assayed in triplicate. […] All values were expressed as means ± standard error of the mean (S.E.M.). Statistically significant differences between treated and control samples were tested by one-way analysis of variance (ANOVA).

[3] = system: murine macrophage J774 cell line; experiment: as above; details: for SI: selectivity index (CC50/IC50): J774 macrophages vs G. intestinalis, pure flavonoids (Table 4)
Method: as §1

[4] = J774 macrophage cell line, pure flavonoids

Compound | IC50 ([1]; pure flavonoids) [µM] | IC50 ([1]; extract, fractions and sub-fractions of Piper delineatum leaves) [µg/mL] | CC50 at 48 h [2, 4] [µM] | SI: selectivity index (CC50/IC50) [3] | CC50 at 48 h ([2]; pure flavonoids) [µM] | Macrophages CC50 [3] [µg/mL] | Antiparasitic potency relative to metronidazole ([1]; IC50 ratio to the reference drug metronidazole) [fold] | CC50 at 48 h ([2]; J774 macrophage cell line, extract, fractions and sub-fractions) [µg/mL]
COc1cccc(/C=C/C(=O)c2c(O)cc(O)cc2OC)c1 [Compound 7, 2′,4′-dihydroxy-3,6′-dimethoxychalchone] | 4.7 ± 0.1 | – | 15.7 ± 0.2 | – | – | – | – | –
COc1cc(O)c2c(c1)O[C@H](c1ccc(O)cc1)CC2=O [Compound 23, sakuranetin] | 52.4 ± 2.1 | – | – | 3.5 | 184 ± 2.3 | – | – | –
EtOH | – | – | – | – | – | 7.1 ± 0.6 | – | –
COc1cc(O)cc(/C=C/C(=O)c2c(O)cc(OC)cc2OC)c1 [Compound 4, 2′,3-Dihydroxy-4′,6′,5-trimethoxychalcone] | 0.061 ± 0.001 | – | 14.2 ± 0.2 | 233 | – | – | 41 | –
COc1cc(O)c(OC)c(O)c1C(=O)/C=C/c1cccc(O)c1 [Compound 2, 2′,4′,3-Trihydroxy-3′,6′-dimethoxychalcone] | 47.7 ± 1.2 | – | 184 ± 2.6 | 3.9 | – | – | – | –
COc1cc(O)cc(/C=C/C(=O)c2c(O)cc(O)cc2OC)c1 [Compound 3, 2′,4′,3-Trihydroxy-6′,5-dimethoxychalcone] | 6 ± 0.3 | – | 12 ± 0.1 | – | – | – | – | –
COc1cc(O)cc(O)c1C(=O)/C=C/c1ccccc1 [Compound 8, 2′,4′-dihydroxy-6′-methoxychalchone] | 9.6 ± 0.2 | – | – | – | 37.8 ± 1.1 | – | – | –
COc1cccc(/C=C/C(=O)c2c(O)cc(OC)cc2OC)c1 [Compound 9, 2′-hydroxy-3,4′,6′-trimethoxychalchone] | 10.8 ± 0.1 | – | 22.6 ± 0.5 | – | – | – | – | –
COc1cccc(/C=C/C(=O)c2c(OC)cc(O)c(OC)c2O)c1 [Compound 10, 2′,4′-dihydroxy-3,3′,6′-trimethoxychalcone] | 32.7 ± 1.3 | – | 44.2 ± 0.7 | 1.4 | – | – | – | –
COc1cc(O)cc(O)c1C(=O)/C=C/c1cccc(O)c1 [Compound 1, 2′,4′,3-Trihydroxy-6′-methoxychalcone] | 7 ± 0.1 | – | 12.9 ± 0.2 | 1.8 | – | – | – | –

Second part, led by results:

IC50 ([1]; pure flavonoids) [µM] | IC50 ([1]; extract, fractions and sub-fractions of Piper delineatum leaves) [µg/mL] | Compound | CC50 at 48 h [2, 4] [µM] | SI: selectivity index (CC50/IC50) [3] | CC50 at 48 h ([2]; pure flavonoids) [µM] | Macrophages CC50 [3] [µg/mL] | Antiparasitic potency relative to metronidazole ([1]; IC50 ratio to the reference drug metronidazole) [fold] | CC50 at 48 h ([2]; J774 macrophage cell line, extract, fractions and sub-fractions) [µg/mL]
49.3 ± 0.9 | – | COc1cccc(C2CC(=O)c3c(OC)cc(OC)cc3O2)c1 (stereo not drawn) [Compound 24, 5,7,3′-trimethoxyflavanone] | 144 ± 2.3 | 2.9 | – | – | – | –
2.5 ± 0.1 | 0.4 ± 0.1 | Cc1ncc([N+](=O)[O-])n1CCO [Metronidazole, reference compound] | > 584 | >233 | – | – | – | 233
22.5 ± 0.8 | – | COc1cc(O)cc(/C=C/C(=O)c2c(OC)cc(OC)c(O)c2O)c1 [Compound 11, 2′,3′,5-trihydroxy-4′,6′,3-trimethoxychalcone] | 48.5 ± 0.8 | 2.2 | – | – | – | –
70.5 ± 0.3 | – | COc1cc(O)cc(O)c1C(=O)CCc1ccccc1 [Compound 16, uvangoletin] | > 367 | >5.2 | – | – | – | –
10.4 ± 0.2 | – | COc1cc(/C=C/C(=O)c2c(O)cc(O)cc2OC)ccc1O [Compound 14, 2′,4′,4-trihydroxy-3,6′-dimethoxychalchone] | 16.5 ± 0.03 | 1.6 | – | – | – | –
7.3 ± 0.6 | – | COc1cc(OC)c(C(=O)/C=C/c2ccccc2)c(O)c1O [Compound 12, 2′,3′-dihydroxy-4′,6′-dimethoxychalchone] | 25.3 ± 0.4 | 3.5 | – | – | – | –
